Structures can show the parent of a compound that is named as a salt.
How the values were obtained:
[1] = molecular target: T1, purified human Factor XIa (Homo sapiens, UniProt P03951); assay: Factor XIa inhibition assay, chromogenic substrate S-2366 (Ki); type: biochemical
T1 construct: purchased Haematologic Technologies
Method: (§1) The effectiveness of compounds of the present invention as inhibitors of the coagulation Factors XIa, VIIa, IXa, Xa, XIIa, plasma kallikrein or thrombin, can be determined using a relevant purified serine protease, respectively, and an appropriate synthetic substrate. The rate of hydrolysis of the chromogenic or fluorogenic substrate by the relevant serine protease was measured both in the absence and presence of compounds of the present invention. […] A decrease in the rate of absorbance or fluorescence change in the presence of inhibitor is indicative of enzyme inhibition. Such methods are known to one skilled in the art. The results of this assay are expressed as the inhibitory constant, Ki.
Factor XIa determinations were made in 50 mM HEPES buffer at pH 7.4 containing 145 mM NaCl, 5 mM KCl, and 0.1% PEG 8000 (polyethylene glycol; JT Baker or Fisher Scientific). Determinations were made using purified human Factor XIa at a final concentration of 25-200 pM (Haematologic Technologies) and the synthetic substrate S-2366 (pyroGlu-Pro-Arg-pNA; Chromogenix or AnaSpec) at a concentration of 0.0002-0.001 M.
(§2) Values of Ki were determined by allowing the protease to react with the substrate in the presence of the inhibitor.
(§3) Reactions were allowed to go for periods of 20-180 minutes (depending on the protease) and the velocities (rate of absorbance or fluorescence change versus time) were measured.
(§4) The following relationships were used to calculate Ki values: (Vmax*S)/(Km+S) (vo−vs)/vs=I/(Ki(1+S/Km)) for a competitive inhibitor with one binding site; or vs/vo=A+((B−A)/1+((IC50/(I)^n))); and Ki=IC50/(1+S/Km) for a competitive inhibitor where: […]

[2] = molecular target: T2, purified human plasma kallikrein (Homo sapiens, UniProt P03952); assay: Plasma kallikrein inhibition assay, chromogenic substrate S-2302 (Ki); type: biochemical
T2 construct: Plasma prekallikrein is a zymogen of a trypsin-like serine protease; purchased Enzyme Research Laboratories
T2 sequence (P03952 391-638 limits assumed): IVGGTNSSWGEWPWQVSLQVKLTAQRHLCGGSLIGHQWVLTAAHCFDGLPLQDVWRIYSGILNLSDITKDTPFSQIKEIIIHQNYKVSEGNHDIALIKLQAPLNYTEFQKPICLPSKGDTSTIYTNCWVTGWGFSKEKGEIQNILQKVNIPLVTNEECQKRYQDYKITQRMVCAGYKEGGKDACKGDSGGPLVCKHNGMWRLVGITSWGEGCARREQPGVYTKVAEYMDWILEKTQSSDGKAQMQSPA
T2 sequence (P03952 20-390 partner limits assumed): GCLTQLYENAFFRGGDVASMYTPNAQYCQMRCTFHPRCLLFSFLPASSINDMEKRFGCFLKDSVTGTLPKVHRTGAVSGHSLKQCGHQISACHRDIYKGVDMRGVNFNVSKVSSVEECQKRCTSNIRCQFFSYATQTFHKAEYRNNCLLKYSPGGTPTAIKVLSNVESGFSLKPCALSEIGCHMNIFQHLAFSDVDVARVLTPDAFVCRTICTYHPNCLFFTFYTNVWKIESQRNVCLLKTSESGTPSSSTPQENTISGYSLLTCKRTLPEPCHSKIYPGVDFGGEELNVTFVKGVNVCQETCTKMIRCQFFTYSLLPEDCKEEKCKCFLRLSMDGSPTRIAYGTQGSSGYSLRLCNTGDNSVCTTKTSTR
Method: as §1
Plasma kallikrein determinations were made in 0.1 M sodium phosphate buffer at a pH of 7.5 containing 0.1-0.2 M sodium chloride and 0.5% PEG 8000. Determinations were made using purified human plasma kallikrein (Enzyme Research Laboratories) at a final assay concentration of 200 pM and the synthetic substrate S-2302 (H-(D)-Pro-Phe-Arg-pNA; Chromogenix) at a concentration of 0.00008-0.0004 M.
as §2, §3, §4

T1 sequence (P03951 388-625 limits assumed): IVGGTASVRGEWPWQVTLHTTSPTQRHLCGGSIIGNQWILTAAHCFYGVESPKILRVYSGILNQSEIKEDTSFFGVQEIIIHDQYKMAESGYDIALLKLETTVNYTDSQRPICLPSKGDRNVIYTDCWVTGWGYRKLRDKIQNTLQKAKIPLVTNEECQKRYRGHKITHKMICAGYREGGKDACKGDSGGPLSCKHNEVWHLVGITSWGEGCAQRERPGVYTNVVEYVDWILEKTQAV
T1 sequence (P03951 19-387 partner limits assumed): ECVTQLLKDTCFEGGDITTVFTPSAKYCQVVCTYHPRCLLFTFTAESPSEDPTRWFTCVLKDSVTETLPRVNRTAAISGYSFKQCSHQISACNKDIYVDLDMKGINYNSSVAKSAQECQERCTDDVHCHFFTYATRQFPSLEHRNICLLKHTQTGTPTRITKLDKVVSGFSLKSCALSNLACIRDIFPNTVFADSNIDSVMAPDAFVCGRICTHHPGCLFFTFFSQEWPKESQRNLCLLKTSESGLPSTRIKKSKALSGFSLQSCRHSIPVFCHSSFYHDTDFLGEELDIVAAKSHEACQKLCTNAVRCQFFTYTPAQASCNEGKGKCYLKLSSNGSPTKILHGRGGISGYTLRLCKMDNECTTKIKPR

Ki [1] [nM]	Ki [2] [nM]	Compound
3	25	C[C@H]1C(=O)Nc2cnn(C)c2-c2ccnc(c2)[C@@H](n2ccc(-c3c(C(F)(F)F)ccc(Cl)c3F)cc2=O)CCC1F (stereo partly drawn) [Example 28, (9S,13S)-13-{4-[3-chloro-2-fluoro-6-(trifluoromethyl)phenyl]-2-oxo-1,2-dihydropyridin-1-yl}-10-fluoro-3,9-dimethyl-3,4,7,15-tetraazatricyclo[12.3.1.0^2,6]octadeca-1(18),2(6),4,14,16-pentaen-8-one trifluoroacetate]
0.6	6	[2H]C([2H])([2H])n1ncc2c1-c1ccnc(c1)[C@@H](N1CCC(c3c(C(F)F)ccc(Cl)c3F)=CC1=O)CCC[C@@H](C)C(=O)N2 [Example 29, (9R,13S)-13-{4-[3-chloro-6-(difluoromethyl)-2-fluorophenyl]-6-oxo-1,2,3,6-tetrahydropyridin-1-yl}-3-(^2H3)methyl-9-methyl-3,4,7,15-tetraazatricyclo[12.3.1.0^2,6]octadeca-1(18),2(6),4,14,16-pentaen-8-one]
1	7	[2H]C([2H])([2H])n1ncc2c1-c1ccnc(c1)[C@@H](N1CCC(c3c(OC(F)F)ccc(Cl)c3F)=CC1=O)CCC[C@@H](C)C(=O)N2 [Example 30, (9R,13S)-13-{4-[3-chloro-6-(difluoromethoxy)-2-fluorophenyl]-6-oxo-1,2,3,6-tetrahydropyridin-1-yl}-3-(^2H3)methyl-9-methyl-3,4,7,15-tetraazatricyclo[12.3.1.0^2,6]octadeca-1(18),2(6),4,14,16-pentaen-8-one]
1.9	11	C[C@@H]1CCC[C@H](N2CCC(c3c(Cl)ccc(Cl)c3F)=CC2=O)c2cc(ccn2)-c2c(cnn2C(F)F)NC1=O [Example 31, (9R,13S)-13-[4-(3,6-dichloro-2-fluorophenyl)-6-oxo-1,2,3,6-tetrahydropyridin-1-yl]-3-(difluoromethyl)-9-methyl-3,4,7,15-tetraazatricyclo [12.3.1.0^2,6]octadeca-1(18),2(6),4,14,16-pentaen-8-one]
2.4	4	[2H]C([2H])([2H])n1ncc2c1-c1ccnc(c1)[C@@H](N1CCC(c3cc(Cl)ccc3C#N)=CC1=O)CCC[C@@H](C)C(=O)N2 [Example 32, 4-chloro-2-{1-[(9R,13S)-3-(^2H3)methyl-9-methyl-8-oxo-3,4,7,15-tetraazatricyclo[12.3.1.0^2,6]octadeca-1(18),2(6),4,14,16-pentaen-13-yl]-6-oxo-1,2,3,6-tetrahydropyridin-4-yl}benzonitrile]
5.7	50	C[C@@H]1CCC[C@H](N2CCC(c3c(C(C)(F)F)ccc(Cl)c3F)=CC2=O)c2cc(ccn2)-c2c(cnn2C)NC1=O [Example 33, (9R,13S)-13-{4-[3-chloro-6-(1,1-difluoroethyl)-2-fluorophenyl]-6-oxo-1,2,3,6-tetrahydropyridin-1-yl}-3,9-dimethyl-3,4,7,15-tetraazatricyclo[12.3.1.0^2,6]octadeca-1(18),2(6),4,14,16-pentaen-8-one]
0.82	32	C[C@@H]1CCC[C@H](N2CCC(c3cc(Cl)ccc3-n3cc(Cl)nn3)=CC2=O)c2cc(ccn2)-c2c(cnn2CCO)NC1=O [Example 35, (9R,13S)-13-{4-[5-chloro-2-(4-chloro-1H-1,2,3-triazol-1-yl)phenyl]-6-oxo-1,2,3,6-tetrahydropyridin-1-yl}-3-(2-hydroxyethyl)-9-methyl-3,4,7,15-tetraazatricyclo[12.3.1.0^2,6]octadeca-1(18),2(6),4,14,16-pentaen-8-one]
1.7	5	C[C@@H]1CCC[C@H](N2CCC(c3c(Br)ccc(Cl)c3F)=CC2=O)c2cc(ccn2)-c2c(cnn2C)NC1=O [Example 36, (9R,13S)-13-[4-(6-bromo-3-chloro-2-fluorophenyl)-6-oxo-1,2,3,6-tetrahydropyridin-1-yl]-3,9-dimethyl-3,4,7,15-tetraazatricyclo[12.3.1.0^2,6]octadeca-1(18),2(6),4,14,16-pentaen-8-one]
4.7	16	C[C@@H]1CCC[C@H](N2CCC(c3cc(Cl)ccc3Br)=CC2=O)c2cc(ccn2)-c2c(cnn2C)NC1=O [Example 37, (9R,13S)-13-[4-(2-bromo-5-chlorophenyl)-6-oxo-1,2,3,6-tetrahydropyridin-1-yl]-3,9-dimethyl-3,4,7,15-tetraazatricyclo[12.3.1.0^2,6]octadeca-1(18),2(6),4,14,16-pentaen-8-one]
1.8	120	C[C@@H]1CCC[C@H](N2CCC(c3cc(Cl)ccc3-c3cnn(C(F)F)c3)=CC2=O)c2cc(ccn2)-c2c(cnn2C)NC1=O [Example 38, (9R,13S)-13-(4-{5-chloro-2-[1-(difluoromethyl)-1H-pyrazol-4-yl]phenyl}-6-oxo-1,2,3,6-tetrahydropyridin-1-yl)-3,9-dimethyl-3,4,7,15-tetraazatricyclo[12.3.1.0^2,6]octadeca-1(18),2(6),4,14,16-pentaen-8-one]
1.1	120	C[C@@H]1CCC[C@H](N2CCC(c3c(C#N)ccc(Cl)c3F)=CC2=O)c2cc(ccn2)-c2c(cnn2C)NC1=O [Example 39, 4-chloro-2-{1-[(9R,13S)-3,9-dimethyl-8-oxo-3,4,7,15-tetraazatricyclo[12.3.1.0^2,6]octadeca-1(18),2(6),4,14,16-pentaen-13-yl]-6-oxo-1,2,3,6-tetrahydropyridin-4-yl}-3-fluorobenzonitrile]
0.1	6	C[C@@H]1CCC[C@H](N2CCC(c3cc(Cl)ccc3-n3cc(C(F)(F)F)nn3)=CC2=O)c2cc(ccn2)-c2c(cnn2C)NC1=O [Example 40, (9R,13S)-13-(4-{5-chloro-2-[4-(trifluoromethyl)-1H-1,2,3-triazol-1-yl]phenyl}-6-oxo-1,2,3,6-tetrahydropyridin-1-yl)-3,9-dimethyl-3,4,7,15-tetraazatricyclo[12.3.1.0^2,6]octadeca-1(18),2(6),4,14,16-pentaen-8-one]
1	34	C[C@@H]1CCC[C@H](N2CCC(c3c(-c4cnn(C(F)F)c4)ccc(Cl)c3F)=CC2=O)c2cc(ccn2)-c2c(cnn2C)NC1=O [Example 41, (9R,13S)-13-(4-{3-chloro-6-[1-(difluoromethyl)-1H-pyrazol-4-yl]-2-fluorophenyl}-6-oxo-1,2,3,6-tetrahydropyridin-1-yl)-3,9-dimethyl-3,4,7,15-tetraazatricyclo[12.3.1.0^2,6]octadeca-1(18),2(6),4,14,16-pentaen-8-one]
0.1	7	[2H]C([2H])([2H])n1ncc2c1-c1ccnc(c1)[C@@H](N1CCC(c3cc(Cl)ccc3-n3cc(C(F)(F)F)nn3)=CC1=O)CCC[C@@H](C)C(=O)N2 [Example 42, (9R,13S)-13-(4-{5-chloro-2-[4-(trifluoromethyl)-1H-1,2,3-triazol-1-yl]phenyl}-6-oxo-1,2,3,6-tetrahydropyridin-1-yl)-3-(^2H3)methyl-9-methyl-3,4,7,15-tetraazatricyclo[12.3.1.0^2,6]octadeca-1(18),2(6),4,14,16-pentaen-8-one]
4.1	110	C[C@@H]1CCC[C@H](N2CCC(c3cc(Cl)ccc3-n3cc(Cl)nn3)=CC2=O)c2cccc(n2)-c2c(cnn2C)NC1=O [Example 43, (9R,13S)-13-{4-[5-chloro-2-(4-chloro-1H-1,2,3-triazol-1-yl)phenyl]-6-oxo-1,2,3,6-tetrahydropyridin-1-yl}-3,9-dimethyl-3,4,7,18-tetraazatricyclo[12.3.1.0^2,6]octadeca-1(18),2(6),4,14,16-pentaen-8-one]
2.2	5.7	C[C@@H]1CCC[C@H](n2ccc(-c3c(Cl)ccc(Cl)c3F)cc2=O)c2cc(ccn2)-c2c(cnn2C)NC1=O [Example 44, (9R,13S)-13-[4-(3,6-dichloro-2-fluorophenyl)-2-oxo-1,2-dihydropyridin-1-yl]-3,9-dimethyl-3,4,7,15-tetraazatricyclo[12.3.1.0^2,6]octadeca-1(18),2(6),4,14,16-pentaen-8-one]

Compound	Ki [1] [nM]	Ki [2] [nM]
C[C@@H]1CCC[C@H](N2CCC(c3cc(Cl)ccc3-n3cc(Cl)nn3)=CC2=O)c2cc(ccn2)-c2c(cnn2CCOC(C)(C)C)NC1=O [Example 34, (9R,13S)-3-[2-(tert-butoxy)ethyl]-13-{4-[5-chloro-2-(4-chloro-1H-1,2,3-triazol-1-yl)phenyl]-6-oxo-1,2,3,6-tetrahydropyridin-1-yl}-9-methyl-3,4,7,15-tetraazatricyclo[12.3.1.0^2,6]octadeca-1(18),2(6),4,14,16-pentaen-8-one]	1.1	50

From patent US10273236B2, “Macrocyclic factor XIa inhibitors bearing heterocyclic groups” (Bristol-Myers Squibb Company, priority 2014, dated 2019)
